Values belong to the compound of their own block, whether it stands above or below them.
System: K98450-129-R-PDC complex spheroid growth, percent test/control
Assay: Anticancer human tumor K98450-129-R-PDC patient-derived colon adenocarcinoma cell line growth inhibition [RAS]
Details: for IC50: curve of first compound; for viability, T/C: stronger effect = lower value
Procedure, shortened: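 Multi-cell-type spheroids: tumor cells plus HUVEC endothelial cells and mesenchymal stem cells. RAS-pathway inhibitors were combined with targeted agents, each dosed in half-log steps down from clinical Cmax, or from 10 microM when Cmax was unknown.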

[1] = second compound 0.00316 µM, first compound 0.0316 µM
[2] = second compound 0.00316 µM, first compound 0.1 µM
[3] = second compound 0.00316 µM, first compound 0.316 µM
[4] = second compound 0.00316 µM, first compound 1 µM
[5] = second compound 0.01 µM, first compound 0.0316 µM
[6] = second compound 0.01 µM, first compound 0.1 µM
[7] = second compound 0.01 µM, first compound 0.316 µM
[8] = second compound 0.01 µM, first compound 1 µM
[9] = second compound 0.0316 µM, first compound 0.0316 µM
[10] = second compound 0.0316 µM, first compound 0.1 µM
[11] = second compound 0.0316 µM, first compound 0.316 µM
[12] = second compound 0.0316 µM, first compound 1 µM
[13] = second compound 0.1 µM, first compound 0.0316 µM
[14] = second compound 0.1 µM, first compound 0.1 µM
[15] = second compound 0.1 µM, first compound 0.316 µM
[16] = second compound 0.1 µM, first compound 1 µM
[17] = second compound 0.316 µM, first compound 0.0316 µM
[18] = second compound 0.316 µM, first compound 0.1 µM
[19] = second compound 0.316 µM, first compound 0.316 µM
[20] = second compound 0.316 µM, first compound 1 µM
[21] = second compound 1 µM, first compound 0.0316 µM
[22] = second compound 1 µM, first compound 0.1 µM
[23] = second compound 1 µM, first compound 0.316 µM
[24] = second compound 1 µM, first compound 1 µM
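Also: spheroids exposed to agents for seven days before the viability readout.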
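For viability, T/C in this document: luminescence used as a proxy for viable cell amount.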

- IC50 (second compound 0.00316 µM): 58.6 nM
- IC50 (second compound 0.01 µM): < 31.6 nM
- IC50 (second compound 0.0316 µM): < 31.6 nM
- IC50 (second compound 0.1 µM): < 31.6 nM
- IC50 (second compound 0.316 µM): < 31.6 nM
- IC50 (second compound 1 µM): < 31.6 nM
SMILES: NC1c2ccccc2OC12CCN(c1cnc3c(N4CCCc5ncccc54)n[nH]c3n1)CC2 (centres undefined) + C=CC(=O)N1CCN(c2nc(OCC3CCCN3C)nc3c(F)c(-c4nc(N)cc(C)c4C(F)(F)F)c(Cl)cc23)C(C)C1
- viability, T/C [1]: 71.8%
- viability, T/C [2]: 31.1%
- viability, T/C [3]: 8.4%
- viability, T/C [4]: 7.7%
- viability, T/C (second compound 0.00316 µM, first compound 3.16 µM): 6.2%
- viability, T/C (second compound 0.00316 µM, first compound 10 µM): 4.82%
- viability, T/C [5]: 48.1%
- viability, T/C [6]: 13%
- viability, T/C [7]: 7.99%
- viability, T/C [8]: 7.31%
- viability, T/C (second compound 0.01 µM, first compound 3.16 µM): 6.81%
- viability, T/C (second compound 0.01 µM, first compound 10 µM): 4.84%
- viability, T/C [9]: 16.9%
- viability, T/C [10]: 10.2%
- viability, T/C [11]: 8.19%
- viability, T/C [12]: 7.23%
- viability, T/C (second compound 0.0316 µM, first compound 3.16 µM): 5.99%
- viability, T/C (second compound 0.0316 µM, first compound 10 µM): 4.9%
- viability, T/C [13]: 12.3%
- viability, T/C [14]: 8.86%
- viability, T/C [15]: 8.05%
- viability, T/C [16]: 6.93%
- viability, T/C (second compound 0.1 µM, first compound 3.16 µM): 6.33%
- viability, T/C (second compound 0.1 µM, first compound 10 µM): 4.82%
- viability, T/C [17]: 10.9%
- viability, T/C [18]: 8.75%
- viability, T/C [19]: 8.02%
- viability, T/C [20]: 6.49%
- viability, T/C (second compound 0.316 µM, first compound 3.16 µM): 6.35%
- viability, T/C (second compound 0.316 µM, first compound 10 µM): 5.02%
- viability, T/C [21]: 10.8%
- viability, T/C [22]: 9.4%
- viability, T/C [23]: 8.01%
- viability, T/C [24]: 6.8%
- viability, T/C (second compound 1 µM, first compound 3.16 µM): 6.75%
- viability, T/C (second compound 1 µM, first compound 10 µM): 5.01%

- IC50 (second compound 0.00316 µM): 57.9 nM
- IC50 (second compound 0.01 µM): 33.7 nM
- IC50 (second compound 0.0316 µM): 15.3 nM
- IC50 (second compound 0.1 µM): 5.71 nM
- IC50 (second compound 0.316 µM): < 3.16 nM
- IC50 (second compound 1 µM): < 3.16 nM
SMILES: Nc1ccn(C2OC(CO)C(O)C2(F)F)c(=O)n1 (centres undefined) + C=CC(=O)N1CCN(c2nc(OCC3CCCN3C)nc3c(F)c(-c4nc(N)cc(C)c4C(F)(F)F)c(Cl)cc23)C(C)C1
- viability, T/C (second compound 0.00316 µM, first compound 0.00316 µM): 91.3%
- viability, T/C (second compound 0.00316 µM, first compound 0.01 µM): 86.3%
- viability, T/C [1]: 59.6%
- viability, T/C [2]: 40.5%
- viability, T/C [3]: 31.7%
- viability, T/C [4]: 25.8%
- viability, T/C (second compound 0.01 µM, first compound 0.00316 µM): 91%
- viability, T/C (second compound 0.01 µM, first compound 0.01 µM): 76.8%
- viability, T/C [5]: 49.1%
- viability, T/C [6]: 34.8%
- viability, T/C [7]: 28.5%
- viability, T/C [8]: 22.8%
- viability, T/C (second compound 0.0316 µM, first compound 0.00316 µM): 68.4%
- viability, T/C (second compound 0.0316 µM, first compound 0.01 µM): 59.5%
- viability, T/C [9]: 34.1%
- viability, T/C [10]: 22.6%
- viability, T/C [11]: 18.5%
- viability, T/C [12]: 16.3%
- viability, T/C (second compound 0.1 µM, first compound 0.00316 µM): 57.5%
- viability, T/C (second compound 0.1 µM, first compound 0.01 µM): 43%
- viability, T/C [13]: 24.4%
- viability, T/C [14]: 17.7%
- viability, T/C [15]: 15.2%
- viability, T/C [16]: 14.7%
- viability, T/C (second compound 0.316 µM, first compound 0.00316 µM): 41.5%
- viability, T/C (second compound 0.316 µM, first compound 0.01 µM): 38.6%
- viability, T/C [17]: 21.8%
- viability, T/C [18]: 16.4%
- viability, T/C [19]: 14.2%
- viability, T/C [20]: 12.8%
- viability, T/C (second compound 1 µM, first compound 0.00316 µM): 36.2%
- viability, T/C (second compound 1 µM, first compound 0.01 µM): 25.1%
- viability, T/C [21]: 18.8%
- viability, T/C [22]: 16.9%
- viability, T/C [23]: 14.3%
- viability, T/C [24]: 14.4%
